In patent publication US6653289B1, “L-arabino-disaccharides of anthracyclines, processes for their preparation, and pharmaceutical compositions containing them” (Menarini Ricerche S.p.A., priority 1999, dated 2003):

How the values were obtained:
[1] = tested on: H460 (pulmonary carcinoma); assay: cytotoxicity in vitro on H460; assay type: cell-based; conditions: read-out: IC50, concentration necessary for 50% inhibition of diseased cells growth, 24-h exposure to the drug
Source text: (§1) (R8=H, R9=R10=R12=OH, R11=NH2) described in patent application WO 95/09173 on lines H460 (pulmonary carcinoma) and GLC-4 (pulmonary microcarcinoma).

[2] = tested on: pulmonary microcytoma GLC-4; assay: activity in vivo on human tumour line implanted s.c. in naked mice; conditions: GLC-4 s.c. in naked mice, 6 mg/kg every 3-4 days, 5 cycles (total 30 mg/kg); for LCK (Log Cell Kill): T-C/DT×3.32; for TWI % (300 mg), Tumour Weight Inhibition %: determined 7-10 days after last treatment
Procedure: The activity in vivo of (Ia), compared with that of (V), was also evaluated on a human tumour line implanted s.c. in naked mice (pulmonary microcytoma GLC-4) after administration of 6 mg/kg of drug every 3-4 days, for 5 treatment cycles.
The results obtained are shown in Table 2, which reports the Tumour Weight Inhibition % (TWI% determined 7-10 days after the last treatment) and the Log Cell Kill [LCK in animals treated according to the formula: T-C/DT×3.32, where T and C are the days that tumours take to reach the significant weight fixed in each test. in treated animals (T) and in controls (C)].

[3] = tested on: GLC-4 (pulmonary microcarcinoma); assay: cytotoxicity in vitro on GLC-4; assay type: cell-based, human; conditions: read-out: IC50, concentration necessary for 50% inhibition of diseased cells growth, 24-h exposure to the drug
Source text: as §1

Compound | IC50 [1] | LCK (Log Cell Kill) [2] | TWI % (300 mg), Tumour Weight Inhibition % [2] | IC50 [3]
CC1OC(OC2C(O)CC(OC3CC(O)(C(=O)CO)Cc4c(O)c5c(c(O)c43)C(=O)c3ccccc3C5=O)OC2C)CC(N)C1O.Cl [V, 7-O-[2,6-dideoxy-4-O-(2,3,6-trideoxy-3-amino-α-L-lyxo-hexopyranosyl)-α-L-lyxo-hexopyranosyl]-4-demethoxy-doxorubicinone chlorhydrate] | 14 nM | 0.4 | 60% | 55 nM
C[C@@H]1O[C@@H](O[C@@H]2[C@H](C)O[C@@H](O[C@H]3C[C@](O)(C(=O)CO)Cc4c(O)c5c(c(O)c43)C(=O)c3ccccc3C5=O)C[C@@H]2O)C[C@H](N)[C@H]1O.Cl [Ia, 7-O-[2,6-dideoxy-4-O-(2,3,6-trideoxy-3-amino-α-L-arabino-hexopyranosyl)-α-L-lyxo-hexopyranosyl]-4-demethoxy-doxorubicinone chlorhydrate] | 10 nM | 1.1 | 93% | 11 nM
